Reference: PMC12689914, “Identification of a novel dual-targeting peptide inhibitor of SARS-CoV-2 RBD and NRP1 through structure-based virtual screening” (Frontiers in Pharmacology, 2025)
Non-standard residues stand in square brackets, D forms with d. Residues, ends and D or L forms follow the SMILES beside them.

Tested on: SARS-CoV-2 Omicron XBB.1.5 pseudovirus
Conditions: Omicron XBB.1.5 pseudovirus, 48 h

## CC(C)C[C@H](NC(=O)[C@H](CCC(=O)O)NC(=O)[C@H](C)NC(=O)[C@@H](N)CCC(=O)O)C(=O)N[C@H](CC(=O)O)C(=O)N[C@H](C(=O)N[C@@H](CO)C(=O)N[C@@H](CC(=O)O)C(=O)N[C@@H](C)C(=O)N[C@@H](Cc1ccccc1)C(=O)N[C@@H](Cc1ccc(O)cc1)C(=O)N[C@@H](CCCNC(=N)N)C(=O)N[C@@H](Cc1ccccc1)C(=O)N[C@@H](Cc1ccccc1)C(=O)N[C@@H](CCCNC(=N)N)C(=O)N[C@@H](CCCNC(=N)N)C(=O)N[C@@H](C)C(=O)N[C@@H](CCCNC(=N)N)C(=O)O)C(C)C [Peptide-1] (H-EAEL[dD]VSDAFYRFFRRAR-OH; N-terminus and C-terminus assumed)
  EC50: 0.62 ± 0.03 µM
